Results reported in patent US20250230193A1, “CYCLIC COMPOUND HAVING SELECTIVE KRAS INHIBITORY EFFECT ON HRAS AND NRAS” (CHUGAI SEIYAKU KABUSHIKI KAISHA, priority 2022, published 2025).

Tests used:
[1] = target: GDP-bound NRAS wild-type protein (Homo sapiens, UniProt P01111); test: Binding to NRAS by surface plasmon resonance (SPR), Single Cycle Kinetics
[2] = target: GDP-bound HRAS wild-type protein (Homo sapiens, UniProt P01112); test: Binding to HRAS by surface plasmon resonance (SPR), Single Cycle Kinetics
[3] = GDP-bound NRAS wild-type vs GDP-bound KRAS wild-type, SPR
[4] = GDP-bound HRAS wild-type vs GDP-bound KRAS wild-type, SPR

Chain of GDP-bound HRAS wild-type protein (P01112 whole entry): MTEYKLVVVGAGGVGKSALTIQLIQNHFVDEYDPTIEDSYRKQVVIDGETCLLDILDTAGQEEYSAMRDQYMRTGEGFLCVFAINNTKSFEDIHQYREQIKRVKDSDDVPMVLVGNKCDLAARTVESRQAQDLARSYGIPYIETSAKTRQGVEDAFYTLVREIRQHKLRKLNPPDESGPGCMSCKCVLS
Chain of GDP-bound NRAS wild-type protein (P01111 whole entry): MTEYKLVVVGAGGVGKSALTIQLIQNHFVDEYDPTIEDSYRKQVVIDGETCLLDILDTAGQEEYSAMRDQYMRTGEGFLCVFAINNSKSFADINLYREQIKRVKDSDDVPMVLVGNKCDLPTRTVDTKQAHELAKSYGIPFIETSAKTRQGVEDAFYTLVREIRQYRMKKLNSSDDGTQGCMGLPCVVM

With `CC[C@H](C)[C@@H]1NC(=O)[C@H](C(C)C)N(C)C(=O)C[C@@H](C(=O)N(C)CC)N(C)C(=O)[C@H](C2CCCC2)N(C)C(=O)C2(CC(C)(C)C2)NC(=O)[C@@H]2C[C@H](C)CN2C(=O)[C@H](CCc2cc(F)c(C(F)(F)F)c(F)c2)NC(=O)CN(C)C(=O)[C@H](Cc2ccc(C(F)(F)F)cc2)N2CC/C=C\C[C@@H](C2=O)N(C)C(=O)CN(C)C1=O` [PP1976] the “NRAS/KRAS (ratio of KD value for NRAS to KD value for KRAS)” value [1, 3] was “AA (a compound having 20 or more is denoted as AA)” and the “HRAS/KRAS (ratio of KD value for HRAS to KD value for KRAS)” value [2, 4] was “A (a compound having 10 or more and less than 20 is denoted as A)”.
`CC[C@H](C)[C@@H]1NC(=O)[C@H](CC(C)C)N(C)C(=O)C[C@@H](C(=O)N(C)C)N(C)C(=O)[C@H](C2CCCC2)N(C)C(=O)C2(CCCC2)NC(=O)[C@@H]2CC(F)(F)CN2C(=O)[C@H](CCc2cc(F)c(C(F)(F)F)c(F)c2)NC(=O)CN(C)C(=O)[C@H](Cc2ccc(C(F)(F)F)cc2)N2CCCC[C@@H](C2=O)N(C)C(=O)CN(C)C1=O` [PP0576] was tested, and the “NRAS/KRAS (ratio of KD value with respect to GDP-bound NRAS wild-type protein to KD value with respect to KRAS)” value ([1]; SPR) was “C (A compound having a KD ratio of 0.1 or more and less than 3 is denoted as C)” and the “HRAS/KRAS (ratio of KD value with respect to GDP-bound HRAS wild-type protein to KD value with respect to KRAS)” value ([2]; SPR) was “B (a compound having 3 or more and less than 10 is denoted as B)”.
For `CCC[C@H]1C(=O)N[C@@H]([C@@H](C)CC)C(=O)N(C)CC(=O)N(C)[C@H]2C/C=C\CCN(C2=O)[C@@H](Cc2ccc(C(F)(F)F)cc2)C(=O)N(C)CC(=O)N[C@@H](CCc2cc(Cl)c3sccc3c2)C(=O)N2C[C@H](OCC)C[C@H]2C(=O)NC2(CC(C)(C)C2)C(=O)N(C)[C@@H](C(CC)CC)C(=O)N(C)[C@H](C(=O)N(C)C)CC(=O)N1C` [PP2888], the “NRAS/KRAS (ratio of KD value with respect to GDP-bound NRAS wild-type protein to KD value with respect to KRAS)” value ([1]; class symbols) was “AA (a compound having 20 or more is denoted as AA)” and the “HRAS/KRAS (ratio of KD value with respect to GDP-bound HRAS wild-type protein to KD value with respect to KRAS)” value ([2]; class symbols) was “A (a compound having 10 or more and less than 20 is denoted as A)”.
With `CCC[C@H]1C(=O)N[C@@H]([C@@H](C)CC)C(=O)N(C)CC(=O)N(C)[C@H]2C/C=C\CCN(C2=O)[C@@H](Cc2ccc(C(F)(F)F)cc2)C(=O)N(C)CC(=O)N[C@@H](CCc2cc(F)c3c(c2)CCC3)C(=O)N2C[C@H](OCC)C[C@H]2C(=O)NC2(CC(C)(C)C2)C(=O)N(C)[C@@H](C2CCCC2)C(=O)N(C)[C@H](C(=O)N(C)C)CC(=O)N1C` [PP2849] the “NRAS/KRAS (ratio of KD value with respect to GDP-bound NRAS wild-type protein to KD value with respect to KRAS)” value ([1]; class symbols) was “A (a compound having 10 or more and less than 20 is denoted as A)” and the “HRAS/KRAS (ratio of KD value with respect to GDP-bound HRAS wild-type protein to KD value with respect to KRAS)” value ([2]; class symbols) was “A (a compound having 10 or more and less than 20 is denoted as A)”.
`CCC[C@H]1C(=O)N[C@@H]([C@@H](C)CC)C(=O)N(C)CC(=O)N(C)[C@H]2C/C=C\CCN(C2=O)[C@@H](Cc2ccc(C(F)(F)F)cc2)C(=O)N(C)CC(=O)N[C@@H](CCc2ccc(C(F)(F)F)c(OC)c2)C(=O)N2CCCCC[C@H]2C(=O)NC2(CC(C)(C)C2)C(=O)N(C)[C@@H](C(CC)CC)C(=O)N(C)[C@H](C(=O)N(C)C)CC(=O)N1C` [PP2968] was tested, and the “NRAS/KRAS (ratio of KD value with respect to GDP-bound NRAS wild-type protein to KD value with respect to KRAS)” value ([1]; class symbols) was “AA (a compound having 20 or more is denoted as AA)” and the “HRAS/KRAS (ratio of KD value with respect to GDP-bound HRAS wild-type protein to KD value with respect to KRAS)” value ([2]; class symbols) was “A (a compound having 10 or more and less than 20 is denoted as A)”.
With `CCOC[C@H]1C(=O)N[C@@H]([C@@H](C)CC)C(=O)N2CCC[C@H]2C(=O)N(C)[C@H]2C/C=C\CCN(C2=O)[C@@H](Cc2ccc(C)cc2)C(=O)N(C)CC(=O)N[C@@H](CCc2ccc(C(F)(F)F)c(OC)c2)C(=O)N2C[C@@H](C)C[C@H]2C(=O)NC2(CC(C)(C)C2)C(=O)N(C)[C@@H](C2CCCC2)C(=O)N(C)[C@H](C(=O)N(C)CC)CC(=O)N1C` [PP2427] the “NRAS/KRAS (ratio of KD value with respect to NRAS to KD value with respect to KRAS)” value ([1]; SPR, GDP-bound NRAS wild-type vs GDP-bound KRAS wild-type) was “AA (a compound having 20 or more is denoted as AA)” and the “HRAS/KRAS (ratio of KD value with respect to HRAS to KD value with respect to KRAS)” value ([2]; SPR, GDP-bound HRAS wild-type vs GDP-bound KRAS wild-type) was “A (a compound having 10 or more and less than 20 is denoted as A)”.
For `CCO[C@@H]1C[C@H]2C(=O)NC3(CC(C)(C)C3)C(=O)N(C)[C@@H](C3CCCC3)C(=O)N(C)[C@H](C(=O)N(C)C)CC(=O)N3CCCCC[C@H]3C(=O)N[C@@H]([C@@H](C)CC)C(=O)N(C)CC(=O)N(C)[C@H]3C/C=C\CCN(C3=O)[C@@H](Cc3ccc(C(F)(F)F)cc3)C(=O)N(C)CC(=O)N[C@@H](CCc3cc(F)c(C(F)(F)F)c(F)c3)C(=O)N2C1` [PP1915], the “NRAS/KRAS (ratio of KD value for NRAS to KD value for KRAS)” value [1, 3] was “A (a compound having 10 or more and less than 20 is denoted as A)” and the “HRAS/KRAS (ratio of KD value for HRAS to KD value for KRAS)” value [2, 4] was “A (a compound having 10 or more and less than 20 is denoted as A)”.
